The source of these data is US8563714B2, “Bridged spiro [2.4] heptane derivatives as ALX receptor and/or FPRL2 agonists” (Actelion Pharmaceuticals Ltd., priority 2009, dated 2013).

Where only a bound is given, the exact number is not on record here.

In one experiment the target is T1, human FPRL2 (Homo sapiens, UniProt P25089).
T1 construct: expressed in transfected cells; host or cells: HEK293 (HEK293-hFPRL2-Gα16)
T1 sequence (P25089 1-353): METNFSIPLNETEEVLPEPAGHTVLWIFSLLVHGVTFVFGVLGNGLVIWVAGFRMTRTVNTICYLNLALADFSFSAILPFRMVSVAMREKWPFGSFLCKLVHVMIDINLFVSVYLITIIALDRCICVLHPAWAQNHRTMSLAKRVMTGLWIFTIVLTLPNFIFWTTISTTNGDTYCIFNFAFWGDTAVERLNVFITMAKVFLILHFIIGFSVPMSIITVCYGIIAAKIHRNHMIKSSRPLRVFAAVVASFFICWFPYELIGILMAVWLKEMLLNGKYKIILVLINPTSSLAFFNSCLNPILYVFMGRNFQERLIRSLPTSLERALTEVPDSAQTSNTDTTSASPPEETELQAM
The experiment in a line: Intracellular calcium measurements (FLIPR), agonistic activity in HEK293-hFPRL2-Gα16 cells. The format is cell-based. The note with it: Fluo-4 calcium FLIPR, normalized to GLY14-Humanin 100 nM. On the procedure: (§1) The ALX receptor and FPRL2 agonistic activities of the compounds of formula (I) are determined in accordance with the following experimental method.
(§2) Intracellular Calcium Measurements:
Cells expressing recombinant human FPRL2 and the G-protein Gα16 (HEK293-hFPRL2-Gα16) were grown to 80% confluency in Growing Medium (GM). […] Stock solutions of test compounds were made up at a concentration of 10 mM in DMSO, and serially diluted in AB to concentrations required for activation dose response curves. Gly14-Humanin (Humanin peptide with replacement of Serine by Glycine at position 14, Phoenix Peptides) was used as a reference agonist. FLIPR384 or FLIPR Tetra instruments (Molecular Devices) were operated according to the manufacturer's standard instructions, adding 4 μl of test compound dissolved at 10 mM in DMSO and diluted prior to the experiment in assay buffer to obtain the desired final concentration. Changes in fluorescence were monitored before and after the addition of test compounds at lex=488 nm and lem=540 nm. Emission peak values above base level after compounds addition were exported after base line subtraction. Values were normalized to high-level control (GLY14-Humanin compound, 100 nM final concentration) after subtraction of the base line value (AB addition).

The next experiment deals with T2, human ALX receptor (Homo sapiens, UniProt P25090).
T2 construct: expressed in transfected cells; host or cells: HEK293 (HEK293-hALXR-Gα16)
T2 sequence (P25090 1-351): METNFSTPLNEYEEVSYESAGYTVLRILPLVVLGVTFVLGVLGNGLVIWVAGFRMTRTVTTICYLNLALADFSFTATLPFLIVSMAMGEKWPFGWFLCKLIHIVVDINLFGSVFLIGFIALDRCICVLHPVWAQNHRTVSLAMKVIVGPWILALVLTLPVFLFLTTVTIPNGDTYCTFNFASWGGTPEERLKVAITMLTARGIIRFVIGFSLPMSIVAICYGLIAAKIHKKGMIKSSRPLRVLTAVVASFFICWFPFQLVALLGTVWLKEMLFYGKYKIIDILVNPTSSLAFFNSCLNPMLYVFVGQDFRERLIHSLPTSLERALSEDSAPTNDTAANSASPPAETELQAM
The experiment in a line: Intracellular calcium measurements (FLIPR), agonistic activity in HEK293-hALXR-Gα16 cells. The settings on record: Fluo-4 calcium FLIPR, normalized to WKYMVm 10 nM. The format is cell-based. The procedure: as §1, §2
Cells expressing recombinant human ALX receptor and the G-protein Gα16 (HEK293-hALXR-Gα16) were grown to 80% confluency in Growing Medium (GM). Cells were detached from culture dishes with a cell dissociation buffer (Invitrogen, 13151-014), and collected by centrifugation at 1,000 rpm at rt for 5 min in Assay Buffer (AB) (equal parts of Hank's BSS (Gibco, 14065-049) and DMEM without Phenol Red (Gibco, 11880-028)). After 60 min incubation at 37° C. under 5% CO2 in AB supplemented with 1 μM Fluo-4 (AM) (Invitrogen, F14202), and 20 mM HEPES (Gibco, 15630-056), the cells were washed and resuspended in AB. They were then seeded onto 384-well FLIPR assay plates (Greiner, 781091) at 50′000 cells in 70 μl per well and sedimented by centrifugation at 1,000 rpm for 1 min. Stock solutions of test compounds were made up at a concentration of 10 mM in DMSO, and serially diluted in AB to concentrations required for activation dose response curves. WKYMVm (Phoenix Peptides) was used as a reference agonist. FLIPR384 or FLIPR Tetra instruments (Molecular Devices) were operated according to the manufacturer's standard instructions, adding 4 μl of test compound dissolved at 10 mM in DMSO and diluted prior to the experiment in assay buffer to obtain the desired final concentration. Changes in fluorescence were monitored before and after the addition of test compounds at lex=488 nm and lem=540 nm. Emission peak values above base level after compounds addition were exported after base line subtraction. Values were normalized to high-level control (WKYMVm compound, 10 nM final concentration) after subtraction of the base line value (AB addition).

On to `O=C(NCCF)[C@H]1[C@H](C(=O)Nc2ccc(Br)cc2)[C@@H]2C=C[C@H]1C21CC1` (racemic) [Example 20, (5R*)—N^5-(4-Bromophenyl)-(6R*)—N^6-(2-fluoro-ethyl)-(4S*,7R*)-[4,7-ethenylene-spiro[2.4]heptane]-5,6-dicarboxamide], for which the EC50 on human FPRL2 is 2860 nM; on human ALX receptor it was 2.7 nM.

`CNCCNC(=O)[C@H]1[C@H](C(=O)Nc2ccc(Br)cc2)[C@@H]2C=C[C@H]1C21CC1` (racemic) [Example 21, (5R*)—N^5-(4-Bromophenyl)-(6R*)—N^6-(2-(N-methyl-amino)-ethyl)-(4S*,7R*)-[4,7-ethenylene-spiro[2.4]heptane]-5,6-dicarboxamide]: the concentration for a half-maximal effect (EC50) was 1690 nM at human FPRL2 and 2.8 nM on human ALX receptor.

With `O=C(N[C@H]1CC[C@H](O)CC1)[C@H]1[C@H](C(=O)Nc2ccc(Br)cc2)[C@@H]2C=C[C@H]1C21CC1` (racemic) [Example 23, (5R*)—N^5-(4-Bromophenyl)-(6R*)—N^6-(4-hydroxy-cyclohexyl)-(4S*,7R*)-[4,7-ethenylene-spiro[2.4]heptane]-5,6-dicarboxamide], the figures for the EC50 on human FPRL2 and at human ALX receptor were above 25000 nM and 3.3 nM, respectively.

For `CCSCCNC(=O)[C@H]1[C@H](C(=O)Nc2ccc(Br)cc2)[C@@H]2C=C[C@H]1C21CC1` (racemic) [Example 24, (5R*)—N^5-(4-Bromophenyl)-(6R*)—N^6-(2-ethylsulfanyl-ethyl)-(4S*,7R*)-[4,7-ethenylene-spiro[2.4]heptane]-5,6-dicarboxamide], the half-maximal effective concentration (EC50) is 4120 nM on human FPRL2 and 3.7 nM on human ALX receptor.

As for `O=C(NCCN1CCNC1=O)[C@H]1[C@H](C(=O)Nc2ccc(Br)cc2)[C@@H]2C=C[C@H]1C21CC1` (racemic) [Example 29, (5R*)—N^5-(4-Bromophenyl)-(6R*)—N^6-(2-imidazolidin-2-on-1-yl-ethyl)-(4S*,7R*)-[4,7-ethenylene-spiro[2.4]heptane]-5,6-dicarboxamide], the values for the 50% effective concentration (EC50) at human FPRL2 and on human ALX receptor were 5580 nM and 4.8 nM, respectively.

For the compound `O=C(NCCCN1CCCC1)[C@H]1[C@H](C(=O)Nc2ccc(Br)cc2)[C@@H]2C=C[C@H]1C21CC1` (racemic) [Example 30, (5R*)—N^5-(4-Bromophenyl)-(6R*)—N^6-(3-pyrrolidin-1-yl-propyl)-(4S*,7R*)-[4,7-ethenylene-spiro[2.4]heptane]-5,6-dicarboxamide], the 50% effective concentration (EC50) came to 405 nM at human FPRL2 and 4.9 nM at human ALX receptor.

For the compound `O=C(NCCCc1nc2ccccc2[nH]1)[C@H]1[C@H](C(=O)Nc2ccc(Br)cc2)[C@@H]2C=C[C@H]1C21CC1` (racemic) [Example 32, (5R*)—N^5-(4-Bromophenyl)-(6R*)—N^6-(3-(1H-benzoimidazol-2-yl)-propyl)-(4S*,7R*)-[4,7-ethenylene-spiro[2.4]heptane]-5,6-dicarboxamide], the figures for the EC50 on human FPRL2 and on human ALX receptor were 3280 nM and 5.4 nM, respectively.

For `O=C(NCCO)[C@H]1[C@H](C(=O)Nc2ccc(Br)cc2)[C@@H]2C=C[C@H]1C21CC1` (racemic) [Example 34, (5R*)—N^5-(4-Bromophenyl)-(6R*)—N^6-(2-hydroxy-ethyl)-(4S*,7R*)-[4,7-ethenylene-spiro[2.4]heptane]-5,6-dicarboxamide], the figures for the 50% effective concentration (EC50) on human FPRL2 and at human ALX receptor were 16100 nM and 6.1 nM, respectively.

On to `COCCN(CCOC)C(=O)C1C(C(=O)Nc2ccc(Br)cc2)C2C=CC1C21CC1` (racemic) [Example 35, (5R*)—N^5-(4-Bromophenyl)-(6R*)—N^6,N^6-bis-(2-methoxy-ethyl)-(4S*,7R*)-[4,7-ethenylene-spiro[2.4]heptane]-5,6-dicarboxamide], for which the half-maximal effective concentration (EC50) at human FPRL2 is 1870 nM; on human ALX receptor it was 6.1 nM.

Turning to `N#CCNC(=O)[C@H]1[C@H](C(=O)Nc2ccc(Br)cc2)[C@@H]2C=C[C@H]1C21CC1` (racemic) [Example 36, (5R*)—N^5-(4-Bromophenyl)-(6R*)—N^6-(cyano-methyl)-(4S*,7R*)-[4,7-ethenylene-spiro[2.4]heptane]-5,6-dicarboxamide], the EC50 was found to be 11500 nM on human FPRL2 and 6.7 nM on human ALX receptor.

`O=C(NCCCn1cccn1)[C@H]1[C@H](C(=O)Nc2ccc(Br)cc2)[C@@H]2C=C[C@H]1C21CC1` (racemic) [Example 37, (5R*)—N^5-(4-Bromophenyl)-(6R*)—N^6-(3-1H-pyrazol-1-yl-propyl)-(4S*,7R*)-[4,7-ethenylene-spiro[2.4]heptane]-5,6-dicarboxamide]: the EC50 at human FPRL2 stood at 1710 nM; on human ALX receptor it was 7.1 nM.

With `NCc1ccc(CNC(=O)[C@H]2[C@H](C(=O)Nc3ccc(Br)cc3)[C@@H]3C=C[C@H]2C32CC2)cc1` (racemic) [Example 38, (5R*)—N^5-(4-Bromophenyl)-(6R*)—N^6-[(4-aminomethyl-phenyl)-methyl]-(4S*,7R*)-[4,7-ethenylene-spiro[2.4]heptane]-5,6-dicarboxamide], the concentration for a half-maximal effect (EC50) at human FPRL2 worked out at 1550 nM; on human ALX receptor it was 7.5 nM.

Consider `CCN(CC)CCN(CC)C(=O)[C@H]1[C@H](C(=O)Nc2ccc(Br)cc2)[C@@H]2C=C[C@H]1C21CC1` (racemic) [Example 39, (5R*)—N^5-(4-Bromophenyl)-(6R*)—N^6-ethyl-N^6-(2-diethylamino-ethyl)-(4S*,7R*)-[4,7-ethenylene-spiro[2.4]heptane]-5,6-dicarboxamide], for which the results for the half-maximal effective concentration (EC50) at human FPRL2 and at human ALX receptor were 1540 nM and 7.6 nM, respectively.

With `O=C(NCCCn1ccnc1)[C@H]1[C@H](C(=O)Nc2ccc(Br)cc2)[C@@H]2C=C[C@H]1C21CC1` (racemic) [Example 40, (5R*)—N^5-(4-Bromophenyl)-(6R*)—N^6-(3-1H-imidazol-1-yl-propyl)-(4S*,7R*)-[4,7-ethenylene-spiro[2.4]heptane]-5,6-dicarboxamide], the EC50 at human FPRL2 stood at 848 nM; on human ALX receptor it was 9 nM.

Regarding `O=C(NCCCCO)[C@H]1[C@H](C(=O)Nc2ccc(Br)cc2)[C@@H]2C=C[C@H]1C21CC1` (racemic) [Example 42, (5R*)—N^5-(4-Bromophenyl)-(6R*)—N^6-(4-hydroxy-butyl)-(4S*,7R*)-[4,7-ethenylene-spiro[2.4]heptane]-5,6-dicarboxamide], the half-maximal effective concentration (EC50) amounted to 7840 nM on human FPRL2 and 9.6 nM on human ALX receptor.

On to `CN1CCN(CCCNC(=O)[C@H]2[C@H](C(=O)Nc3ccc(Br)cc3)[C@@H]3C=C[C@H]2C32CC2)CC1` (racemic) [Example 43, (5R*)—N^5-(4-Bromophenyl)-(6R*)—N^6-(3-(4-methyl-piperazin-1-yl)-propyl)-(4S*,7R*)-[4,7-ethenylene-spiro[2.4]heptane]-5,6-dicarboxamide], for which the figures for the concentration for a half-maximal effect (EC50) at human FPRL2 and on human ALX receptor were 925 nM and 9.5 nM, respectively.
